Measured values as given in ChEMBL document CHEMBL3507680, “University of Dundee, Gates Library screen for HepG2 cell viability”.

Test: Human HepG2 cell viability assay in 384 well format
Assay type: toxicity, cell-based
Parameters: dose 125 nL, time 70.5 hour; cytotoxicity at 70.5 h: concentration not given beside the values
Settings: HepG2 cells, read-out: Inhibition
Work on CCc1cnc2c(c1NCc1ccc(OC)cc1)c(=O)n(C)c(=O)n2C yielded a cytotoxicity at 70.5 h of 3.22%.
Work on Cc1ccc(F)c2c1CCCN2Cc1cc(=O)n(C)c(=O)n1C yielded a cytotoxicity at 70.5 h of -7.78%.
In the case of O=C(NS(=O)(=O)c1cnn(-c2ccccc2F)c1)c1ccoc1, the cytotoxicity at 70.5 h is reported as 9.38%.
Molecule Fc1ccc(CN2CCOCC3(CCN(Cc4nccs4)C3)C2)cc1 (configuration not stated) has a cytotoxicity at 70.5 h of -1.05%.
With Cc1cccc(Cn2c3c(ccc2=O)CCN(Cc2ccoc2)CC3)n1 the cytotoxicity at 70.5 h was -9.52%.
With CC(=O)Nc1ncc(S(=O)(=O)Nc2ccc3c(c2)OCCO3)s1 the cytotoxicity at 70.5 h was -7.83%.
Cc1csc(Nc2nccnc2C2CCCN2S(C)(=O)=O)n1 (configuration not stated) showed a cytotoxicity at 70.5 h of -12.8%.
CCC(=O)N1CCC2(CC1)CN(C(C)=O)c1ccc(C)cc12 showed a cytotoxicity at 70.5 h of -9.39%.
In the case of c1cc(-c2n[nH]cc2-c2ccnc(N3CCCC3)n2)ccn1, the cytotoxicity at 70.5 h is reported as -2.36%.
In the case of CCC(CC)N1CCC(c2[nH]ncc2S(C)(=O)=O)C1 (configuration not stated), the cytotoxicity at 70.5 h is reported as -5.29%.
Work on CCc1nc(CN2CCCN(C(=O)COC(C)C)CC2)cs1 yielded a cytotoxicity at 70.5 h of 2.07%.
With COCc1ccccc1NC(=O)c1ccoc1 the cytotoxicity at 70.5 h was -15%.
Molecule CN1C[C@H](COCC2CC2)[C@H]2CCN(Cc3ccco3)CC[C@H]2C1=O has a cytotoxicity at 70.5 h of 7.68%.
COC(=O)CSCc1nc(-c2ccc(Cl)cc2)no1 gave a cytotoxicity at 70.5 h of 11%.
With CCNC(=O)CCC(=O)NCC1(O)CCC(C(C)(C)C)CC1 (configuration not stated) the cytotoxicity at 70.5 h was -2.55%.
Work on Cc1ccccc1N1CCN(C(=O)c2cccnc2-n2cncn2)CC1 yielded a cytotoxicity at 70.5 h of -6.93%.
CCN(CCn1cccn1)C(=O)CN1C(=O)OC[C@@H]1C(C)C gave a cytotoxicity at 70.5 h of -3.13%.
With Cc1cc2cccc(C(=O)N3CCOC(CCN(C)C)C3)c2o1 (configuration not stated) the cytotoxicity at 70.5 h was -17.3%.
In the case of Cc1cc(C)n(C2CCCN(C(=O)c3c[nH]c(=O)c(Cl)c3)C2)n1 (configuration not stated), the cytotoxicity at 70.5 h is reported as -8.77%.
In the case of Fc1cccc(-c2c[nH]c([C@@H]3COCCN3C3CCOCC3)n2)c1, the cytotoxicity at 70.5 h is reported as -8.23%.
Molecule O=C1CCC(=O)c2oc3ccc(Cl)cc3c2N1 has a cytotoxicity at 70.5 h of -14%.
Cc1nc(CNC(=O)NC(C)c2ccc3c(c2)OCCCO3)cs1 (configuration not stated) showed a cytotoxicity at 70.5 h of -0.884%.
Work on Cc1nn(C)c(C)c1CN(C)C(=O)C1COc2ccccc2C1 (configuration not stated) yielded a cytotoxicity at 70.5 h of -3.84%.
Work on CN(Cc1ccc2c(c1)OCCO2)C(=O)Cn1ccccc1=O yielded a cytotoxicity at 70.5 h of -5.02%.
In the case of CC1CCCN(C(=O)c2cccc(CS(C)(=O)=O)c2)C1 (configuration not stated), the cytotoxicity at 70.5 h is reported as 7.89%.
For O=C1CC(c2ccc(F)cc2)Cc2[nH]c(=O)c(C(=O)O)cc21 (configuration not stated), the cytotoxicity at 70.5 h was -8.55%.
Molecule OCCn1cc(CN2CCN(CCOc3ccccc3)CC2)cn1 has a cytotoxicity at 70.5 h of -16%.
For CN1C[C@@H](C(=O)N(C)C)[C@@]2(CCc3ccccc3C(=O)N2)C1, the cytotoxicity at 70.5 h was 0.772%.
Molecule Cn1ccc(C(=O)NCc2cccc(NC(=O)C3CCC3)c2)cc1=O has a cytotoxicity at 70.5 h of -13.3%.
For Cc1cc(CN(C)C(=O)c2ccc(N(C)C)nc2)no1, the cytotoxicity at 70.5 h was -7.16%.
Molecule C[C@@H]1CN(S(=O)(=O)N2CCCCCC2)C[C@@]1(O)C1CCC1 has a cytotoxicity at 70.5 h of -8.97%.
In the case of CC(=O)NCc1noc2c1CN(Cc1cccs1)CC2, the cytotoxicity at 70.5 h is reported as -1.08%.
Work on CC[C@H](C)Nc1nccc(-c2cnc3sc(C)cn3c2=O)n1 yielded a cytotoxicity at 70.5 h of -5.35%.
CC(=O)c1cn(CCC(=O)NCCCC(=O)O)c2ccccc12 gave a cytotoxicity at 70.5 h of -12.2%.
Cc1cc(CN2CCN(C(=O)NCc3csc(C)n3)CC2)on1 showed a cytotoxicity at 70.5 h of -13%.
For CCc1nnc2n1CCN(C(=O)CN(CC)CC)C2, the cytotoxicity at 70.5 h was 44.6%.
For Cn1cc(CNCC2(O)CCCCC2)c(-c2cccnc2)n1, the cytotoxicity at 70.5 h was -4.88%.
In the case of c1ccc(-c2cccc(N3CCC(NCCc4cscn4)CC3)c2)cc1, the cytotoxicity at 70.5 h is reported as -7.94%.
CN(C1CCCN(c2ccccn2)C1)S(C)(=O)=O (configuration not stated) gave a cytotoxicity at 70.5 h of -3.73%.
CCC(C)(C)NC(=O)Cn1nc(C)nc1-c1ccccc1 showed a cytotoxicity at 70.5 h of -0.158%.
Molecule CC1CN(CC(=O)NC(C2CC2)C2CC2)CCN1Cc1nccn1C (configuration not stated) has a cytotoxicity at 70.5 h of -3.28%.
COc1ccc(-c2nc(CN3CC(n4cc(C)cn4)C3)no2)cc1 showed a cytotoxicity at 70.5 h of -4.24%.
CN1CCN(C(=O)COCc2nc(-c3ccncc3)no2)CC1 showed a cytotoxicity at 70.5 h of 17.1%.
CCN(c1ccc(C(=O)N2CCC(C(N)=O)CC2)cc1)S(=O)(=O)CC gave a cytotoxicity at 70.5 h of 15.4%.
COc1ccc(S(=O)(=O)NC(=O)c2c(C)noc2C(C)C)cc1C gave a cytotoxicity at 70.5 h of -5.8%.
Molecule CCSc1cncc(NCc2ccc(N3CCNC(=O)C3)cc2)n1 has a cytotoxicity at 70.5 h of 3.68%.
With Cn1ccnc1CN1CC[C@H]2CO[C@H](CNc3ncccn3)[C@H]2C1 the cytotoxicity at 70.5 h was -5.82%.
Cc1nc(C2CCN(Cc3ncc[nH]3)CC2)no1 showed a cytotoxicity at 70.5 h of 19.7%.
COCCOc1ccccc1C(=O)N1CCCCC1c1nccs1 (configuration not stated) showed a cytotoxicity at 70.5 h of 50.2%.
With CC(=O)c1c(O)n(C)c2ccccc12 the cytotoxicity at 70.5 h was 25.3%.
In the case of Cn1cc(NC(=O)CNC(=O)N2CCN(c3cccc(Cl)c3)CC2)cn1, the cytotoxicity at 70.5 h is reported as -4.74%.
With CCc1ccc(CNCC2CCN(CCO)CC2)cc1 the cytotoxicity at 70.5 h was 16.5%.
For O=C(CN(C1=NCCCCC1)c1ccc(Cl)cc1)c1ccccc1, the cytotoxicity at 70.5 h was 10.9%.
Cc1ncncc1-c1ccnc(N)n1 showed a cytotoxicity at 70.5 h of -2.72%.
In the case of O=C(c1ccco1)N1CCCC2(CN(Cc3ccsc3)CCO2)C1 (configuration not stated), the cytotoxicity at 70.5 h is reported as -5.26%.
Work on CN1CCN(C(=O)c2cnn(-c3ccccc3Cl)c2)CC1 yielded a cytotoxicity at 70.5 h of -8.29%.
In the case of CCN(CC)S(=O)(=O)c1csc(C(=O)N2CCC(C(N)=O)CC2)c1, the cytotoxicity at 70.5 h is reported as -2.86%.
